# Source: patent US10071164B2, “Estrogen-related receptor alpha based protac compounds and associated methods of use” (Yale University, priority 2014, dated 2018)
# What was measured:
# [1] = target: estrogen related receptor alpha (ERRα) (Homo sapiens, UniProt P11474); conditions: FIG. 5
# Description: [drawing 18] on the degradation of estrogen related receptor alpha (ERRα).
# ERRα = target: T1, ERRα (Homo sapiens, UniProt P11474); experiment: ERRα degradation in ST-486 cells; type: cell-based; design: degration of ERRα in either MCF-7 cells or ST-486 cells; endogenous in cells; host or cells: ST-486; conditions: ST486, column C, read-out: ERRα Degradation Dmax (Estimated) ST-486 cells
# T1 sequence (P11474 1-423): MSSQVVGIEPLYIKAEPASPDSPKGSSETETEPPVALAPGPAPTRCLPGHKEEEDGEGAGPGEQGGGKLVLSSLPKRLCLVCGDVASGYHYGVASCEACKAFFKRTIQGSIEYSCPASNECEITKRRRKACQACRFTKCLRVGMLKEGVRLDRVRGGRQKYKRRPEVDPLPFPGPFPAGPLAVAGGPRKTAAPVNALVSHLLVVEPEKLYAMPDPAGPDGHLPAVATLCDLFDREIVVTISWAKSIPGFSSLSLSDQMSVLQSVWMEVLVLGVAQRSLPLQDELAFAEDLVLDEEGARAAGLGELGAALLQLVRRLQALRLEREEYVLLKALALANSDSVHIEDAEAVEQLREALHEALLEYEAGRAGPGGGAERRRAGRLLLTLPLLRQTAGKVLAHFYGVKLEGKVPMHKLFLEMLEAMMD
# Description: Using the methods as described herein, the following exemplary PROTAC compounds were prepared (see Table below). The exemplary compounds were also assayed for their ability to effectuate the degration of ERRα in either MCF-7 cells or ST-486 cells. Thus, in certain embodiments, the description provides the compounds below, including compositions comprising effective amount of a compound as listed below or a derivative, analog, or a prodrug of the same, in combination with at least one of a pharmaceutically acceptable carrier, another active agent, including a second PROTAC molecule as described herein or a combination thereof. In additional embodiments, the disclosure provides a method of treating a disease or condition in a subject in need thereof, comprising administering a composition comprising an effective amount of a compound listed below, wherein the composition is effective for treating or ameliorating a symptom of the disease or condition.
# Legend for following table: A=ERRα Degradation Dmax (Estimated) MCF-7 cells; B=ERRα Degradation DC50 (Estimated) MCF-7 cells; C=ERRα Degradation Dmax (Estimated) ST-486 cells; D=ERRα Degradation DC50 (Estimated) ST-486 cells
# VHL = VHL (Homo sapiens, UniProt P40337); experiment: VHL binding (stereocenter inversion); conditions: inversion of stereocenter(s) of the VHL ligand
# Sequence of VHL (P40337 whole entry, species assumed): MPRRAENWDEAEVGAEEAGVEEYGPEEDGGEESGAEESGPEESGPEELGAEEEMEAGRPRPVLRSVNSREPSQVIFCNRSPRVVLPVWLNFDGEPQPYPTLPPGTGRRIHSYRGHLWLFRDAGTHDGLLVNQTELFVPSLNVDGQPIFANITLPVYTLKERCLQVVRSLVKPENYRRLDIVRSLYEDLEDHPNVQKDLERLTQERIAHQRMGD
# Sequence of VHL (Q15370 whole entry partner, species assumed): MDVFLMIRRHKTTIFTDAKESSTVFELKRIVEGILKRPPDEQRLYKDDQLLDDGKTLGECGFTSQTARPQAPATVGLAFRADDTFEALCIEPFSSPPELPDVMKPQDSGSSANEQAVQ
# Sequence of VHL (Q15369 whole entry partner, species assumed): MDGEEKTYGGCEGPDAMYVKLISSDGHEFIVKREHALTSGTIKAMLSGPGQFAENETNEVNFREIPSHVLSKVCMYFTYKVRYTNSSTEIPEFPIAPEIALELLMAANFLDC
# RIPK2 = RIPK2 (Homo sapiens, UniProt O43353); experiment: In vitro RIPK2 ubiquitination, reconstituted ubiquitination cascade; type: biochemical; conditions: quenched 15 min after initiation, PAGE and autoradiography
# Sequence of RIPK2 (O43353 whole entry, species assumed): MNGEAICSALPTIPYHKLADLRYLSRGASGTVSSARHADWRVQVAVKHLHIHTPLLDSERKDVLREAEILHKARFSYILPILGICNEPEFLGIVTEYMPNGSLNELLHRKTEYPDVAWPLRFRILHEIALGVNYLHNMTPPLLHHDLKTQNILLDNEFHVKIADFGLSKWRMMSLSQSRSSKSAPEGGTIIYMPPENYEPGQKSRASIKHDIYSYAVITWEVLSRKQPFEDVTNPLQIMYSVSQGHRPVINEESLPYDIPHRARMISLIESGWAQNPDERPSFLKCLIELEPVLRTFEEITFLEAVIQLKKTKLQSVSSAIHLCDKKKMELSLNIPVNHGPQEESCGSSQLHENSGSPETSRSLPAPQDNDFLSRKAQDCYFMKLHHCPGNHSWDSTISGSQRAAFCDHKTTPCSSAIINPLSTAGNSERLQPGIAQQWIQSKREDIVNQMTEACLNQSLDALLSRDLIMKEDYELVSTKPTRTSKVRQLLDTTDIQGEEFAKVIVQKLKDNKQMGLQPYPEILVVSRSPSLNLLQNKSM
# Sequence of RIPK2 (P40337 whole entry, species assumed, further chain): as the sequence (P40337 whole entry, species assumed) above
# Sequence of RIPK2 (Q15370 whole entry partner, species assumed): as the sequence (Q15370 whole entry partner, species assumed) above
# Sequence of RIPK2 (Q15369 whole entry partner, species assumed): as the sequence (Q15369 whole entry partner, species assumed) above
# Sequence of RIPK2 (Q13617 whole entry partner, species assumed): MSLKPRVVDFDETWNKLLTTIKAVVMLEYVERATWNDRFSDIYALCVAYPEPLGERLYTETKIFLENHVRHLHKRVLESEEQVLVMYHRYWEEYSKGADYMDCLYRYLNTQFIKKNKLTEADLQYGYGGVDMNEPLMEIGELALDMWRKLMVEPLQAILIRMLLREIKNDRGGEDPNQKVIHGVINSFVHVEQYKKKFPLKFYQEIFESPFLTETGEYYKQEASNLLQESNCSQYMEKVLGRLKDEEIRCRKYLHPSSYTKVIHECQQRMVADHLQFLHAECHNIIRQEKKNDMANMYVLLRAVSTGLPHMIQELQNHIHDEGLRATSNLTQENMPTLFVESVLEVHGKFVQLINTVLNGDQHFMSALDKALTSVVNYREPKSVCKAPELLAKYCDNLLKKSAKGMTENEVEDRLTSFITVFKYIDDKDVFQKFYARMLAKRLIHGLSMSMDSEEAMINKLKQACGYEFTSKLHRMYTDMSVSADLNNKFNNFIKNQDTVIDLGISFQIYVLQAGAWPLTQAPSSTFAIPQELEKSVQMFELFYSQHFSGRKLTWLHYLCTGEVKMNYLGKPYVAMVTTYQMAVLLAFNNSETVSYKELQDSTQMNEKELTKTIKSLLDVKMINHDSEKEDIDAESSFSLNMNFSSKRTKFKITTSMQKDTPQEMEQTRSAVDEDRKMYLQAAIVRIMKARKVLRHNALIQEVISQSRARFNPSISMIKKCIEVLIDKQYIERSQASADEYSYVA
# Sequence of RIPK2 (P62877 whole entry partner, species assumed): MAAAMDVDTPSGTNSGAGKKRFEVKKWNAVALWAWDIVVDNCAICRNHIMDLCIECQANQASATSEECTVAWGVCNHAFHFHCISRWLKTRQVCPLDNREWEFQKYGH
# Description: Ubiquitination reactions were performed in three stages. In the first stage, RIPK2 (final 500 nM) was incubated for 10 min at room temperature with [^32P]g-ATP in kinase buffer (25 mM Tris pH 7.5, 50 mM KCl, 2 mM Mg(CH3CO2)2, 2 mM MnCl2, 2 mM DTT) to radiolabel RIPK2 through auto-phosphorylation. In the second stage, ubiquitination buffer (25 mM Tris pH 7.5, 5 mM MgCl2, 100 mM NaCl, 2 mM ATP, 0.1 mg/ml BSA, and 2 mM DTT) was added to complete auto-phosphorylation, and then VHL (final 250 nM) and indicated PROTACs (various concentrations) were added to the mixture to allow ternary complex formation. In parallel, UbE1 (final 25 nM), Ubc4 (final 250 nM), and ubiquitin (final 116 μM) were mixed in ubiquitination buffer to allow charging of the E2 enzyme with activated ubiquitin. In stage three of the reaction, the RIPK2-PROTAC-VHL and UbE1-Ubc4˜Ub mixtures were combined, and incubated at room temperature for various times before being quenched with Sample Buffer containing 5% b-mercaptoethanol. Ubiquitinated RIPK2 was then separated by 4-15% SDS-PAGE and imaged using a PhosphoImager Screen overnight.
# RIPK2 was labeled by autophosphorylation and then incubated with the indicated concentrations of PROTAC and the reconstituted ubiquitination cascade. Samples were quenched 15 min after initiation of the reaction, and imaged by PAGE and autoradiography. RIPK2-Ubn is indicated.
# THP-1 cells = experiment: Trypan Blue cell viability assay; type: cell-based; conditions: 16 hours
# Description: FIG. 13 is a cell viability graph illustrating that PROTAC_RIPK2 is not toxic to cells. THP-1 cells were treated with the indicated concentration sof PROTAC_RIPK2 or PROTAC_RIPK2_epi for 16 hours, followed by a Trypan Blue assay to determine cell viability. Error bars represent mean and S.D.
smiles,measurement,setting,value
COc1cc(/C=C2\SC(=O)NC2=O)ccc1Oc1ccc(C#N)cc1C(F)(F)F,effect on the degradation of estrogen related receptor alpha (ERRα),[1],lack of effect
COc1cc(/C=C2\SC(=O)N(CCOCCC(=O)N[C@H](C(=O)N3C[C@H](O)C[C@H]3C(=O)NCc3ccc(-c4scnc4C)cc3)C(C)(C)C)C2=O)ccc1Oc1ccccc1C(F)(F)F [ARV N000414],Dmax,ERRα,98%
COc1cc(/C=C2\SC(=O)N(CCOCCC(=O)N[C@H](C(=O)N3C[C@@H](O)C[C@H]3C(=O)NCc3ccc(-c4scnc4C)cc3)C(C)(C)C)C2=O)ccc1Oc1ccc(C#N)cc1C(F)(F)F [PROTAC_ERRα_epi],VHL binding,VHL,abolishes VHL binding
Cc1ncsc1-c1ccc(CNC(=O)[C@@H]2C[C@@H](O)CN2C(=O)[C@@H](NC(=O)COCCOCCOCCOCCOc2cc3nccc(Nc4ccc5scnc5c4)c3cc2S(=O)(=O)C(C)(C)C)C(C)(C)C)cc1 [PROTAC_RIPK2],direct RIPK2 ubiquitination in vitro,RIPK2,mediates direct RIPK2 ubiquitination
same,cell viability (toxicity to cells),THP-1 cells,not toxic
